Measurements taken from patent US20140242093A1, “METHODS AND COMPOSITIONS FOR MODULATING THE INNATE IMMUNE RESPONSE AND/OR MYOGENESIS IN A MAMMALIAN SUBJECT” (FRED HUTCHINSON CANCER RESEARCH CENTER, priority 2011, published 2014).

System: human genome (hg18)
Assay: ChIP-Seq of DUX4 binding sites in transduced primary myoblasts
Settings: for max.cov (peak height): non-repeat binding site
Method: Non-redundant reads unambiguously mapped to the human genome were computationally extended to a total length of 200 nucleotides and “peaks” were defined as regions where the number of reads was higher than a statistical threshold compared to the background, as described below. Reads mapping to the X and Y chromosomes were excluded from the analysis.
ChIP was performed and ChIP DNA samples were prepared as previously described in Cao et al., Dev. Cell 18:662-674 (2010), hereby incorporated herein by reference. […] Anti-DUX4 N-terminus polyclonal antibodies FH106 and FH107 were combined to immunoprecipitate DUX4-s. The samples were sequenced with Illumina Genome Analyzer II.
Sequences were extracted by Illumina package GApipeline and reads were aligned using BWA to the human genome (hg18). The inventors only kept one of the duplicated sequences to minimize the artifacts of PCR amplification. Each read was extended in the sequencing orientation to a total of 200 bases to infer the coverage at each genomic position. Peak calling was performed by a house developed R package “peakSig” (pending submission to Bioconductor), which model background reads by a negative binomial distribution. The negative binomial distribution can be viewed as a continuous mixture of Poisson distribution where the mixing distribution of the Poisson rate is modeled as a Gamma prior. This prior distribution is used to capture the variation of background reads density across the genome. Model parameters were estimated by fitting the truncated distribution on the number of bases with low coverage (one to three), to avoid the problem of inferring effective genome size excluding the non-mappable regions, and to eliminate contamination of any foreground signals in the high coverage regions. The inventors also fit a GC dependent mixture model so that the significance of the peaks is determined not only by peak height, but also by the GC content of the neighboring genomic regions.
Discriminative motif discovery was carried out as described in Palii et al. (2011), in which motifs were identified that distinguish a positive and a negative sequence dataset, which in this study, the positive sequences correspond to Dux4 binding sites and negative sequences correspond to the randomly sampled flanking regions of Dux4 binding sites. To generate more accurate presentation of the Dux4 binding sites from the consensus pattern returned by this analysis, the inventors tried to learn a positional weight matrix (PWM) model, using the matches of the consensus pattern as the seed to initialize the iterative expectation-maximization (EM) refinement process similar to MEME. If appropriate, the motifs are extended iteratively as long as there is sequence preference in the flanking region, and refined in the same EM process.
The inventors associated a peak to its closest TSS within the region flanked by CTCF binding sites, which were identified in a ChIP-seq experiment on human CD4+ T cells (GEO accession number GSE12889/GSM325895).

[1] = repeat family DNA/TcMar-Mariner
[2] = repeat family DNA/hAT-Blackjack

Which “max.cov (peak height)” value (SNAI1, chr20, dist2tss 769) does the source give for “DUX4-fl: full-length DUX4 protein (SEQ ID NO:110), expressed from lentiviral or pCS2 vectors or in vitro translated” here?
The value was 62.

What about the “max.cov (peak height)” value (SON, chr21, dist2tss −2951) of the same substance?
The value was 244.

And the “max.cov (peak height)” value (SPRYD5, chr11, dist2tss −2855)?
The value was 133.

And the “max.cov (peak height)” value (SPTY2D1, chr11, dist2tss 5934)?
Its value is 74.

What about the “max.cov (peak height)” value (SPTY2D1, chr11, dist2tss −797) of the same substance?
Its value is 105.

And the “max.cov (peak height)” value (SRRT, chr7, dist2tss 1546)?
Its value is 128.

And the “max.cov (peak height)” value (SYNJ1, chr21, dist2tss −766)?
Its value is 229.

And the “max.cov (peak height)” value (TAF4B, chr18, dist2tss −1741)?
Its value is 65.

And the “max.cov (peak height)” value (TFIP11, chr22, dist2tss −1353)?
Its value is 234.

And the “max.cov (peak height)” value (TRIM43, chr2, dist2tss 1385)?
Its value is 47.

What about the “max.cov (peak height)” value (TRIM43, chr2, dist2tss −5584) of the same substance?
Its value is 85.

What about the “max.cov (peak height)” value (TRIM48, chr11, dist2tss −151) of the same substance?
Its value is 178.

What about the “max.cov (peak height)” value (TRIM49L1, chr11, dist2tss 200) of the same substance?
Its value is 85.

And the “max.cov (peak height)” value (TRIM49L2, chr11, dist2tss −202)?
Its value is 109.

What about the “max.cov (peak height)” value (USP29, chr19, dist2tss 2090) of the same substance?
The value was 104.

And the “max.cov (peak height)” value (USP29, chr19, dist2tss 3676)?
The value was 66.

And the “max.cov (peak height)” value (ZNF217, chr20, dist2tss 3546)?
Its value is 122.

What about the “max.cov (peak height)” value (ZNF217, chr20, dist2tss −2168) of the same substance?
The value was 55.

And the “max.cov (peak height)” value (ZNF296, chr19, dist2tss 182)?
The value was 110.

What about the “max.cov (peak height)” value (ZNF705A, chr12, dist2tss −5106) of the same substance?
The value was 224.

What about the “max.cov (peak height)” value (ZSCAN4, chr19, dist2tss 1430) of the same substance?
Its value is 364.

And the “max.cov (peak height)” value (ZSCAN5B, chr19, dist2tss 4892)?
Its value is 89.

And the “max.cov (peak height)” value (ZSCAN5B, chr19, dist2tss −4101)?
The value was 67.

What about the “max.cov (peak height)” value (ZSCAN5B, chr19, dist2tss −5014) of the same substance?
The value was 98.

What about the “max.cov (peak height)” value (hCG_1651160, chr7, dist2tss −192) of the same substance?
The value was 215.

What about the “max.cov (peak height)” value (hCG_1651160, chr7, dist2tss −892) of the same substance?
Its value is 114.

What about the “DUX4-fl Binding Prevalence (fraction of all DUX4-fl peaks)” value [1] of the same substance?
The value was 0.00105.

What about the “DUX4-fl Enrichment (binding prevalence/overall genome prevalence)” value [1] of the same substance?
The value was 1.14.

What about the “DUX4-fl Binding Prevalence (fraction of all DUX4-fl peaks)” value (repeat family DNA/TcMar-Tigger) of the same substance?
Its value is 0.0124.

And the “DUX4-fl Enrichment (binding prevalence/overall genome prevalence)” value (repeat family DNA/TcMar-Tigger)?
Its value is 1.11.

And the “DUX4-fl Binding Prevalence (fraction of all DUX4-fl peaks)” value [2]?
Its value is 0.00064.

And the “DUX4-fl Enrichment (binding prevalence/overall genome prevalence)” value [2]?
The value was 0.57.

What about the “DUX4-fl Binding Prevalence (fraction of all DUX4-fl peaks)” value (repeat family DNA/hAT-Charlie) of the same substance?
The value was 0.00761.

What about the “DUX4-fl Enrichment (binding prevalence/overall genome prevalence)” value (repeat family DNA/hAT-Charlie) of the same substance?
Its value is 0.51.

And the “DUX4-fl Binding Prevalence (fraction of all DUX4-fl peaks)” value (repeat family DNA/hAT-Tip100)?
Its value is 0.00098.

What about the “DUX4-fl Enrichment (binding prevalence/overall genome prevalence)” value (repeat family DNA/hAT-Tip100) of the same substance?
Its value is 0.45.

And the “DUX4-fl Binding Prevalence (fraction of all DUX4-fl peaks)” value (repeat family DNA/hAT?)?
Its value is 0.00016.

What about the “DUX4-fl Enrichment (binding prevalence/overall genome prevalence)” value (repeat family DNA/hAT?) of the same substance?
Its value is 0.94.

What about the “DUX4-fl Binding Prevalence (fraction of all DUX4-fl peaks)” value (repeat family LINE/CR1) of the same substance?
The value was 0.00356.

And the “DUX4-fl Enrichment (binding prevalence/overall genome prevalence)” value (repeat family LINE/CR1)?
The value was 1.00.

What about the “DUX4-fl Binding Prevalence (fraction of all DUX4-fl peaks)” value (repeat family LINE/L1) of the same substance?
Its value is 0.0938.

And the “DUX4-fl Enrichment (binding prevalence/overall genome prevalence)” value (repeat family LINE/L1)?
The value was 0.58.

And the “DUX4-fl Binding Prevalence (fraction of all DUX4-fl peaks)” value (repeat family LINE/L2)?
Its value is 0.02978.

And the “DUX4-fl Enrichment (binding prevalence/overall genome prevalence)” value (repeat family LINE/L2)?
The value was 0.86.

And the “DUX4-fl Binding Prevalence (fraction of all DUX4-fl peaks)” value (repeat family LTR/ERV)?
The value was 0.00032.

And the “DUX4-fl Enrichment (binding prevalence/overall genome prevalence)” value (repeat family LTR/ERV)?
Its value is 5.33.

What about the “DUX4-fl Binding Prevalence (fraction of all DUX4-fl peaks)” value (repeat family LTR/ERV1) of the same substance?
The value was 0.01878.

And the “DUX4-fl Enrichment (binding prevalence/overall genome prevalence)” value (repeat family LTR/ERV1)?
Its value is 0.72.

And the “DUX4-fl Binding Prevalence (fraction of all DUX4-fl peaks)” value (repeat family LTR/ERVK)?
The value was 0.00803.

What about the “DUX4-fl Enrichment (binding prevalence/overall genome prevalence)” value (repeat family LTR/ERVK) of the same substance?
The value was 2.97.

What about the “DUX4-fl Binding Prevalence (fraction of all DUX4-fl peaks)” value (repeat family LTR/ERVL) of the same substance?
The value was 0.04558.

And the “DUX4-fl Enrichment (binding prevalence/overall genome prevalence)” value (repeat family LTR/ERVL)?
The value was 2.50.

What about the “DUX4-fl Binding Prevalence (fraction of all DUX4-fl peaks)” value (repeat family LTR/ERVL-MaLR) of the same substance?
The value was 0.3572.

And the “DUX4-fl Enrichment (binding prevalence/overall genome prevalence)” value (repeat family LTR/ERVL-MaLR)?
The value was 9.92.

And the “DUX4-fl Binding Prevalence (fraction of all DUX4-fl peaks)” value (repeat family LTR/Gypsy)?
The value was 0.00081.

What about the “DUX4-fl Enrichment (binding prevalence/overall genome prevalence)” value (repeat family LTR/Gypsy) of the same substance?
Its value is 1.07.

What about the “DUX4-fl Binding Prevalence (fraction of all DUX4-fl peaks)” value (repeat family SINE/Alu) of the same substance?
The value was 0.00777.

What about the “DUX4-fl Enrichment (binding prevalence/overall genome prevalence)” value (repeat family SINE/Alu) of the same substance?
The value was 0.08.

And the “DUX4-fl Binding Prevalence (fraction of all DUX4-fl peaks)” value (repeat family SINE/MIR)?
The value was 0.02317.

And the “DUX4-fl Enrichment (binding prevalence/overall genome prevalence)” value (repeat family SINE/MIR)?
Its value is 0.82.

What about the “DUX4-fl Binding Prevalence (fraction of all DUX4-fl peaks)” value (repeat family SINE/tRNA) of the same substance?
Its value is 0.00011.

And the “DUX4-fl Enrichment (binding prevalence/overall genome prevalence)” value (repeat family SINE/tRNA)?
The value was 1.57.

What about the “DUX4-fl Binding Prevalence (fraction of all DUX4-fl peaks)” value (repeat family Satellite) of the same substance?
Its value is 0.00068.

What about the “DUX4-fl Enrichment (binding prevalence/overall genome prevalence)” value (repeat family Satellite) of the same substance?
Its value is 0.66.

And the “DUX4-fl Binding Prevalence (fraction of all DUX4-fl peaks)” value (repeat family Satellite/centr)?
The value was 0.00047.

And the “DUX4-fl Enrichment (binding prevalence/overall genome prevalence)” value (repeat family Satellite/centr)?
The value was 0.19.

And the “DUX4-fl Binding Prevalence (fraction of all DUX4-fl peaks)” value (repeat family Simple_repeat)?
The value was 0.00442.

And the “DUX4-fl Enrichment (binding prevalence/overall genome prevalence)” value (repeat family Simple_repeat)?
Its value is 0.53.

And the “DUX4-fl Binding Prevalence (fraction of all DUX4-fl peaks)” value (repeat family Unknown)?
Its value is 0.00063.

And the “DUX4-fl Enrichment (binding prevalence/overall genome prevalence)” value (repeat family Unknown)?
Its value is 1.47.

And the “DUX4-fl Binding Prevalence (fraction of all DUX4-fl peaks)” value (repeat family rRNA)?
Its value is 1.00E−04.

And the “DUX4-fl Enrichment (binding prevalence/overall genome prevalence)” value (repeat family rRNA)?
Its value is 1.67.
